Assay results reported in patent US20220233502A1, “COMPOSITION FOR PREVENTING OR TREATING ASTHMA, RHINITIS OR CONJUNCTIVITIS, COMPRISING N-ACYL AMINO ACID AS ACTIVE INGREDIENT” (STEMDR INC., priority 2019, published 2022).
Entries after “also recorded” stand apart in the source; their conditions may differ.

Columns and labels:
Format in all cases: in vivo, BALB/c mice
IL-13 = experiment: Th2 cytokine IL-13 in bronchial wash (ELISA); conditions: OVA asthma mice; 3.5 μmol/kg oral once a day for 7 days from day 25; FIG. 5
Method: (§1) Specific pathogen-free BALB/c mice (6-week-old, male) were purchased from Doul Biotech (Osan, Korea). Experiment was started when the mice were 7- to 10-week old. The mice were housed in a laminar flow cabinet and were given water and feed ad libitum.
(§2) The mice were sensitized by intraperitoneally injecting 0.02 mg of ovalbumin (OVA) and alum (1 mg) (Sigma-Aldrich) as an immunologic adjuvant twice on days 0 and 14. For 4 days from day 28, the mice were placed in a plastic nebulizer container of a regular size and were made to inhale OVA in the form of an aerosol by spraying 5% OVA for 30 minutes (airway challenge).
(§3) The concentration of several cytokines (TNF-α, IL-4, IL-5, IL-13) in bronchial wash was measured using an ELISA kit (R&D Systems, Minneapolis, Minn., USA).
(§4) Th2 cytokines, IL-4, IL-5 and IL-13, are known to be involved in airway inflammation, bronchial hypersensitivity and IgE antibody production mediated by eosinophils. 3.5 μmol/kg N-acetyl-L-alanine, N-oleoyl-L-alanine, N-acetyl-L-tryptophan or N-oleoyl-L-tryptophan dissolved in 10 mL of phosphate-buffered saline was orally administered once a day, for 7 days from day 25 after the induction of asthma, and the cytokines were measured.

[1] = tested on: asthma-induced mice (lung tissue); experiment: H&E staining of lung tissue, degree of inflammation; conditions: OVA asthma mice; oral administration for a week; vs OVA-challenged group; FIG. 1
Method: as §1, §2
(§5) For histological assay, tissues taken out from the lung were fixed with formalin and embedded in paraffin. The embedded tissue was sliced to 4-μm thickness and subjected to 1) hematoxylin and eosin (H&E) staining for investigation of the degree of inflammation and 2) Masson's trichrome staining for investigation of the degree of pulmonary fibrosis.
Lung tissue was stained with H&E after oral administration of the drug for a week.

IL-4 = experiment: Th2 cytokine IL-4 in bronchial wash (ELISA); conditions: OVA asthma mice; 3.5 μmol/kg oral once a day for 7 days from day 25; FIG. 3
Method: as §1, §2, §3, §4

rhinitis-induced mice = experiment: OVA-induced allergic rhinitis, nasal rubbing and sneezing; conditions: 10 μL of 10 μM intranasally; for number of nasal rubbing: counted for 15 minutes on day 27, FIG. 6A; for number of sneezing: counted for 15 minutes on day 27, FIG. 6B
Method: as §1
The mice were sensitized by intraperitoneally injecting 0.02 mg of ovalbumin (OVA) and alum (1 mg) (Sigma-Aldrich) as an immunologic adjuvant twice on days 0 and 14. For 7 days from day 21, the mice were topically stimulated by injecting 10 μL of a solution of 100 μg of OVA dissolved in 20 μL of phosphate-buffered saline into both nasal cavities, once a day. After the final injection of OVA (day 27), symptom score was recorded by summing the numbers of nasal rubbing and sneezing. The symptom score was recorded for 15 minutes, and the result was compared between the groups.
Ovalbumin (OVA) of Preparation Example 3 was used as an antigen to induce allergic rhinitis. After OVA challenging from day 21 to day 26, 10 μL of each of N-acetyl-L-alanine, N-oleoyl-L-alanine, N-acetyl-L-tryptophan and N-oleoyl-L-tryptophan dissolved in phosphate-buffered saline to 10 μM was intranasally administered 12 hours later. After the final injection of OVA (day 27), symptom score was recorded by summing the numbers of nasal rubbing and sneezing. The symptom score was recorded for 15 minutes, and the result was compared between the groups.

[2] = tested on: asthma-induced mice (lung tissue); experiment: Masson's trichrome staining of lung tissue, degree of fibrosis around the airway; conditions: OVA asthma mice; oral administration for a week; vs OVA-challenged group; FIG. 2
Method: as §1, §2, §5
Lung tissue was stained with Masson's trichrome after oral administration of the drug for a week.

[3] = tested on: conjunctivitis-induced mice; experiment: OVA-induced conjunctivitis, clinical grading of conjunctival edema and flare; conditions: 10 μL of 100 μM intraocularly 30 minutes and 12 hours after challenge, scale 0 to 4+, FIG. 7
Method: as §1
The mice were sensitized by intraperitoneally injecting 0.02 mg of ovalbumin (OVA) and alum (1.5 mg) (Sigma-Aldrich) as an immunologic adjuvant twice on days 0 and 7. For 12 days from day 14, conjunctivitis was induced by injecting 10 μL of a solution of 100 μg of OVA dissolved in 20 μL of phosphate-buffered saline into each eye, once a day.
24 hours after the final injection of OVA (day 25), the clinical grading of conjunctival edema and flare (redness) was assessed using a portable slit lamp (Carl Zeiss, Oberkochen, Germany). The assessment was performed in a blinded fashion 2 hours after OVA injection. Each clinical parameter was scored on a scale of 0 to 4+(0 absent, 1+minimal, 2+mild, 3+moderate, 4+severe) as described in Merayo-Lloves, J., Calonge, M, and Foster, C. S. 1995. Experimental model of allergic conjunctivitis to ragweed in guinea pig. Curr. Eye Res. 14: 487-494. A negative control group was given no treatment.
Ovalbumin of Preparation Example 4 was used as an antigen to induce conjunctivitis. After challenging 100 μg of ovalbumin into the eye from day 15 to 26, 10 μL of each of N-acetyl-L-alanine, N-oleoyl-L-alanine, N-acetyl-L-tryptophan and N-oleoyl-L-tryptophan dissolved in phosphate-buffered saline to 100 μM was intraocularly administered 30 minutes and 12 hours later. On day 26, the clinical grading of conjunctival edema and flare (redness) was assessed using a portable slit lamp (Carl Zeiss, Oberkochen, Germany).

IL-5 = experiment: Th2 cytokine IL-5 in bronchial wash (ELISA); conditions: OVA asthma mice; 3.5 μmol/kg oral once a day for 7 days from day 25; FIG. 4
Method: as §1, §2, §3, §4

[4] = tested on: asthma-induced mice (inflammatory cells in the airway); experiment: Inflammatory cells in bronchoalveolar lavage fluid of asthma-induced mice; conditions: OVA asthma mice; for inflow of eosinophils into the airway / WBC, bronchoalveolar lavage fluid: 3.5 μmol/kg oral once a day for 7 days from day 25; for inflow of eosinophils into the airway: result in words; for WBC Differential Counting (%) EOS (eosinophils) / WBC Differential Counting (%) MAC (macrophages) / WBC Differential Counting (%) MONO (monocytes) / WBC Differential Counting (%) NEU (neutrophils) / WBC Differential Counting (k/uL) EOS (eosinophils) / WBC Differential Counting (k/uL) MAC (macrophages) / WBC Differential Counting (k/uL) MONO (monocytes) / WBC Differential Counting (k/uL) NEU (neutrophils) / WBC, bronchoalveolar lavage fluid: mean, N=8; for WBC Differential Counting (%) EOS (eosinophils) / WBC Differential Counting (%) MAC (macrophages) / WBC Differential Counting (%) MONO (monocytes) / WBC Differential Counting (%) NEU (neutrophils) / WBC Differential Counting (k/uL) EOS (eosinophils) / WBC Differential Counting (k/uL) MAC (macrophages) / WBC Differential Counting (k/uL) MONO (monocytes) / WBC Differential Counting (k/uL) NEU (neutrophils): BAL fluid, 3.5 μmol/kg oral once a day for 7 days
Method: Specific pathogen-free BALB/c mice (6-week-old, male) were purchased from Doul Biotech (Osan, Korea). Experiment was started when the mice were 7- to 10-week old. The mice were housed in a laminar flow cabinet and were given water and feed ad libitum. The mice were sensitized by intraperitoneally injecting 0.02 mg of ovalbumin (OVA) and alum (1 mg) (Sigma-Aldrich) as an immunologic adjuvant twice on days 0 and 14. For 4 days from day 28, the mice were placed in a plastic nebulizer container of a regular size and were made to inhale OVA in the form of an aerosol by spraying 5% OVA for 30 minutes (airway challenge). After anesthetizing the mouse and inserting a tube into the bronchus, the bronchus was washed with a buffer and cells were obtained therefrom. The cells were centrifuged, suspended at 1×10^4 cells/100 μL, and fixed by centrifuging with a cytospin. Then, the number of eosinophils, monocytes, neutrophils and macrophages were measured by staining with Diff-Quik. Neutrophils, macrophages, monocytes and eosinophils were observed as inflammatory cells in the airway. Each of N-acetyl-L-alanine, N-oleoyl-L-alanine, N-acetyl-L-tryptophan and N-oleoyl-L-tryptophan was dissolved in 10 mL of phosphate-buffered saline to 3.5 μmol/kg and was orally administered for 7 days from day 25, once a day.

SMILES	IL-13 secretion in airway (IL-13)	inflammation around the airway, H&E staining of lung tissue [1]	IL-4 secretion in airway (IL-4)	number of nasal rubbing (rhinitis-induced mice)	number of sneezing (rhinitis-induced mice)	fibrosis around the airway, Masson's trichrome staining of lung tissue [2]	clinical grade of conjunctivitis (conjunctival edema and flare) [3]	IL-5 secretion in airway (IL-5)	inflow of eosinophils into the airway [4]	WBC Differential Counting (%) EOS (eosinophils) [4] [%]	WBC Differential Counting (%) MAC (macrophages) [4] [%]	WBC Differential Counting (%) MONO (monocytes) [4] [%]	WBC Differential Counting (%) NEU (neutrophils) [4] [%]	WBC Differential Counting (k/uL) EOS (eosinophils) [4] [k/uL]	WBC Differential Counting (k/uL) MAC (macrophages) [4] [k/uL]	WBC Differential Counting (k/uL) MONO (monocytes) [4] [k/uL]	WBC Differential Counting (k/uL) NEU (neutrophils) [4] [k/uL]	WBC, bronchoalveolar lavage fluid [4]
CC(=O)N[C@@H](C)C(=O)O [NAA, N-acetyl-L-alanine]	significantly inhibited	remarkably inhibited inflammation	significantly inhibited	remarkably decreased	remarkably decreased	inhibited fibrosis	remarkably increased clinical grades	significantly inhibited	significantly inhibited	10.1	81.8	3.3	4.9	0.04	0.32	0.01	0.02	0.39 ×10^2 cells/μL
CCCCCCCC/C=C\CCCCCCCC(=O)N[C@@H](Cc1c[nH]c2ccccc12)C(=O)O [NOT, N-oleoyl-L-tryptophan]	significantly inhibited	remarkably inhibited inflammation	significantly inhibited	remarkably decreased	remarkably decreased	inhibited fibrosis	remarkably increased clinical grades	significantly inhibited	significantly inhibited	17.0	74.3	3.6	5.1	0.07	0.32	0.01	0.02	0.43 ×10^2 cells/μL
CCCCCCCC/C=C\CCCCCCCC(=O)N[C@@H](C)C(=O)O [NOA, N-oleoyl-L-alanine]	significantly inhibited	remarkably inhibited inflammation; also recorded: highest inhibition of inflammation	significantly inhibited	remarkably decreased	remarkably decreased	inhibited fibrosis; also recorded: highest inhibition	remarkably increased clinical grades	significantly inhibited	significantly inhibited	3.4	87.3	3.8	5.5	0.01	0.34	0.01	0.02	0.38 ×10^2 cells/μL
CC(=O)N[C@@H](Cc1c[nH]c2ccccc12)C(=O)O [NAT, N-acetyl-L-tryptophan]	significantly inhibited	remarkably inhibited inflammation	significantly inhibited	remarkably decreased	remarkably decreased	inhibited fibrosis	remarkably increased clinical grades	significantly inhibited	significantly inhibited	20.1	71.8	3.9	4.1	0.10	0.33	0.02	0.02	0.47 ×10^2 cells/μL
